How the values were obtained:
Cathepsin K [1] = molecular target: T1, Cathepsin K (Homo sapiens, UniProt P43235); assay: Inhibition constant against human cathepsin K in fluorescence assay using Cbz-Phe-Arg-AMC
T1 sequence (P43235 whole entry): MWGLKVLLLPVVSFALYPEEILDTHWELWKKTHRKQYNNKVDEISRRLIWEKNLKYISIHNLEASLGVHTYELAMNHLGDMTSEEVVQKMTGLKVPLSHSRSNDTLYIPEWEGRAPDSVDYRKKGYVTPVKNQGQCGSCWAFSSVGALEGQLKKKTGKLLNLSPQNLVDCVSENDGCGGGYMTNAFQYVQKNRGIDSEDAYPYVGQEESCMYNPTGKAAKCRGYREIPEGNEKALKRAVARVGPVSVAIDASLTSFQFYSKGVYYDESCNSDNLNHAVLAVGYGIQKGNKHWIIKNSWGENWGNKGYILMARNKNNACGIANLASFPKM

Cathepsin B = Cathepsin B (Homo sapiens, UniProt P07858); assay: Inhibition constant against human cathepsin B in fluorescence assay using Cbz-Phe-Arg-AMC
Pro-cathepsin H = molecular target: T2, Pro-cathepsin H (Homo sapiens, UniProt P09668); assay: Inhibition constant against human cathepsin H using L-Arg-b-naphthalamide
T2 sequence (P09668 whole entry): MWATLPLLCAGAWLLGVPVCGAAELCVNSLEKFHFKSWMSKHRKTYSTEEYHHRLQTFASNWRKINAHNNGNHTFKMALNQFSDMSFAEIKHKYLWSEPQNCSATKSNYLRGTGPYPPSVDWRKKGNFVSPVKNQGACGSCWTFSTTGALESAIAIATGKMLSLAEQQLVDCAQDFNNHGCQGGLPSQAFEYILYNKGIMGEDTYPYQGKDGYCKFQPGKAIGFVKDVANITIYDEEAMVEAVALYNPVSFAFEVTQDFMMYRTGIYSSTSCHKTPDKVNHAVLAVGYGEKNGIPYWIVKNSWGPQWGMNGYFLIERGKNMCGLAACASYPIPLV

Procathepsin L = Procathepsin L (Homo sapiens, UniProt P07711); assay: Inhibition constant against human cathepsin L using Cbz-Phe-Arg-AMC
Chain of Procathepsin L (P07711 whole entry): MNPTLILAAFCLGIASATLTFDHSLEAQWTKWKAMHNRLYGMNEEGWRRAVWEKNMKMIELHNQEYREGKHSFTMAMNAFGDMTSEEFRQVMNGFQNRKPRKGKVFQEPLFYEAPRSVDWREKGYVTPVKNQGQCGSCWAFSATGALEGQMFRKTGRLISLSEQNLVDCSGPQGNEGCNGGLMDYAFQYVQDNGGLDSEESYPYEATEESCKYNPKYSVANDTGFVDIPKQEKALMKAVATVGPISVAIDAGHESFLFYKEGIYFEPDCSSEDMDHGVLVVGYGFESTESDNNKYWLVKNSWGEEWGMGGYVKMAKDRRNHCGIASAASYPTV

Cathepsin K [2] = molecular target: T3, Cathepsin K (Rattus norvegicus, UniProt O35186); assay: Inhibition constant against rat cathepsin K
T3 sequence (O35186 whole entry): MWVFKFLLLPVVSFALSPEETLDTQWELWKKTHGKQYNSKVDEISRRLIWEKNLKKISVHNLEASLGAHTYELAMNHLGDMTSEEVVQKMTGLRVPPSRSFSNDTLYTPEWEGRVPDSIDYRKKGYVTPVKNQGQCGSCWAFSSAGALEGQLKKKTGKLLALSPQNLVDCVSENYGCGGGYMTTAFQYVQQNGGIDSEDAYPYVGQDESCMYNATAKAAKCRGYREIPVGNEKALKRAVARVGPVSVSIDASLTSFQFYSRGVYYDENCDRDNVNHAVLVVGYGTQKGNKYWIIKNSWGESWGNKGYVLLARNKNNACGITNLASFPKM

Cathepsin K [3] = molecular target: T1, Cathepsin K; assay: Inhibition constant against human cathepsin K

| SMILES | Ki (Cathepsin K [1]) [nM] | further results |
| --- | --- | --- |
| C[C@@H](CC1CCCCC1)OC(=O)NN(C#N)C(C)(C)C | 1500 | – |
| C[C@@H](CC1CCCCC1)OC(=O)NCC#N | 7900 | – |
| CC(C)N(C#N)NC(=O)O[C@@H](C)CC1CCCCC1 | 0.019 | Ki (Cathepsin B): 1.3 nM; Ki (Pro-cathepsin H): 0.46 nM; Ki (Procathepsin L): 0.79 nM |
| CCCN(C#N)NC(=O)O[C@@H](C)CC1CCCCC1 | 0.004 | – |
| CCCCN(C#N)NC(=O)O[C@@H](C)CC1CCCCC1 | 0.007 | – |
| CCN(C#N)NC(=O)O[C@@H](C)CC1CCCCC1 | 0.003 | – |
| C[C@H](C(=O)O[C@@H](C)CC1CCCCC1)N(C)C#N | > 13000 | – |
| C[C@@H](CC1CCCCC1)OC(=O)CN(C)C#N | 26 | Ki (Cathepsin B): 2600 nM; Ki (Pro-cathepsin H): > 13000 nM; Ki (Procathepsin L): 1500 nM |
| CC(C)CN(C#N)NC(=O)O[C@@H](C)CC1CCCCC1 | 0.004 | – |
| C[C@@H](CC1CCCCC1)OC(=O)[C@H](C)N(C)C#N | 2300 | – |
| C[C@@H](CC1CCCCC1)OC(=O)N(C)N(C)C#N | 62 | – |
| CC[C@@H](Cc1ccccc1)OC(=O)NN(C)C#N | 0.032 | Ki (Cathepsin B): 0.25 nM; Ki (Cathepsin K [2]): 0.072 nM; Ki (Procathepsin L): 0.036 nM |
| C[C@H](C#N)NC(=O)O[C@@H](C)CC1CCCCC1 | > 13000 | – |
| C[C@@H](CC1CCCCC1)NC(=O)CN(C)C#N | 830 | – |
| N#CN1CCCC1 [CYANO-PYRROLIDINE] | – | Ki (Cathepsin K [3]): 2100 nM |
| C[C@@H](C#N)NC(=O)O[C@@H](C)CC1CCCCC1 | > 13000 | – |
| C[C@@H](CC1CCCCC1)OC(=O)NN(C#N)Cc1ccccc1 | 0.006 | – |
| CC(C)(C)OC(=O)[C@@H]1CCCN1C#N | – | Ki (Cathepsin K [3]): 60 nM |
| C[C@@H](CC1CCCCC1)OC(=O)NN(C)C#N | 0.009 | Ki (Cathepsin B): 0.077 nM; Ki (Pro-cathepsin H): 1.4 nM; Ki (Procathepsin L): 0.025 nM |
| C[C@@H](CC1CCCCC1)OC(=O)[C@@H]1CCCN1C#N | – | Ki (Cathepsin K [3]): 1.8 nM |

From ChEMBL document CHEMBL1139621, “Acyclic cyanamide-based inhibitors of cathepsin K” (Bioorg Med Chem Lett, 2005)
